Patent EP3666770A1, “NOVEL HETEROCYCLIC COMPOUNDS AS CDK8/19 INHIBITORS” (Joint Stock Company "Biocad", priority 2017, dated 2019)
Read-outs that look alike come from different tables or passages of the source.

Experiments:
[1] = Chemical stability in simulated gastric fluid (SGF); assay type: physicochemical; settings: SGF without enzymes, pH=1,4; 10 µm; 2 hours at 37°C; substance amount in % after thermostatting
Protocol: (§1) Chemical stability of the compounds described herein was determined in simulated gastric fluid and human blood plasma.
SGF concentrate without enzymes, pH=1,4 (Sigma Ireland, cat#01651) was used as simulated gastric fluid. Initial candidate solution (10 mM in DMSO) was diluted with an SGF working solution to a concentration of […] (test solution). The test solution was incubated in a dry block thermostat for 2 hours at 37°C. HPLC with Agilent 1200 liquid chromatography system (Agilent, USA) was employed to determine peak areas of the compounds in test samples, said peak areas corresponding to the initial test time (prior to incubation) and the final test time (after incubation in a dry block thermostat for 2 hours at 37°C). Chromatographic analysis was performed in a gradient elution regime with a flow rate of 1 mL/min. Substance amount in % in a sample after thermostatting was determined.

[2] = Chemical stability in human blood plasma; assay type: in vitro ADME; settings: pooled human blood plasma; 10 µM; 4 hours at 37°C; substance amount in % after thermostatting
Protocol: as §1
Determination of stability in human blood plasma was performed using pooled human blood plasma taken from ten healthy donors. The initial candidate solution (10 mM in DMSO) was diluted with pooled blood plasma to a concentration of […] (test solution). The test solution was incubated in a dry block thermostat for 4 hours at 37°C. HPLC with Agilent 1200 liquid chromatography system (Agilent, USA) was employed to determine peak areas of the compounds in test samples, said peak areas corresponding to the initial test time (prior to incubation) and the final test time (after incubation in a dry block thermostat for 4 hours at 37°C), proteins were preliminarily precipitated with acetonitrile. Chromatographic analysis was performed in a gradient elution regime with a flow rate of 1 mL/min. Substance amount in % in a sample after thermostatting was determined.

[3] = Enzyme stability in human liver microsomes; assay type: in vitro ADME; settings: pH 7.4; 0,5 mg/mL pooled human liver microsomes; 10 µM compound; 37°C; pH=7,4
Protocol: Measuring of candidates' enzyme stability enabled estimation of the stability of the present compounds towards the action of enzymes in liver microsomes.
Enzyme degradation rate was measured by incubating the reaction mixture in a dry block thermostat at 37°C, said reaction mixture comprising 0,5 mg/mL of pooled human liver microsomes (XenoTech, USA, cat#H2620), 10 µM compound, 2 mM β-nicotinamide adenine dinucleotide (Carbosynth, UK, cat#NN10871) and 4 mM magnesium chloride in 0,1 M sodium-phosphate buffer, pH=7,4. The reaction was quenched with acetonitrile (100 µL of acetonitrile / 100 µL of the reaction mixture). After quenching, the samples were centrifuged at 10000 rpm for 10 minutes. Supernatant fluid was tested by chromatographic technique using Agilent1200 (Agilent, USA). Chromatographic analysis was performed in a gradient elution regime with a flow rate of 1 mL/min. A graph of the logarithm of substance's peak area as a function of time was made. The dependent factor of the line corresponded to the elimination rate constant K based on which the drug's half-life t1/2 and degradation rate CLint were calculated: Elimination rate constant (k) = (−gradient) [formula] [formula] V(μL/mg) = (volume of incubation(μL))/(protein in the incubation(mg)) [formula] [formula]

[4] = Permeability through Caco-2 cell monolayer; assay type: in vitro ADME; settings: human, Caco-2; for Papp A→B at 2 h, 10 µM: A->B transfer, pH 6.5 -> pH 7.4, 2 hours at 37 °C; for efflux ratio at 2 h, 10 µM: efflux = Papp B-A / Papp A-B
Protocol: Estimation of permeability through Caco-2 cell monolayer enables assessment of the ability of the substances to penetrate through biological membranes by means of both active and passive transport.
Intestinal epithelial cells Caco-2 were grown on filter inserts (pore size 0.4 µm, BD Falcon with High Density) for 21 days; monolayer integrity was then checked using Lucifer Yellow (Sigma-Aldrich, USA) according to the standard protocol. In A->B transfer ("intestinal lumen" - "blood stream" transfer), solutions of the test substances in buffer, pH 6.5 (HBSS, 10 mM HEPES, 15 mM glucose) at a concentration of 10 µM were added to the upper chamber; whereas the lower chamber was filled with buffer, pH 7.4 (HBSS, 10 mM HEPES, 15 mM Glucose, 1% BSA). In B->A transfer ("blood stream" - "intestinal lumen" transfer), the upper chamber was filled with buffer, pH 6.5, whereas the solutions of the test substances in buffer, pH 7.4, at a concentration of 10 µM were added to the lower chamber. A highly permeable substance propranolol was used as a control.
After 2 hours incubation at 37 ° C under an atmosphere containing 5% CO2, the amounts of the test substances in the upper and lower chambers were measured by HPLC using an Agilent1200 HPLC system (Agilent, USA), proteins were preliminarily precipitated with acetonitrile. Chromatographic analysis was performed in a gradient elution regime with a flow rate of 1 mL/min. The peak areas corresponding to the compounds were detected on chromatograms.
The value was calculated using the formula: efflux = Papp B−A /Papp A−B , [formula] where • Papp A-E - the value of permeability direct analysis A→ B; • Papp B-A - the value of the permeability of the reverse analysis B→ A.

MV4-11 = assay: Cell-based antiproliferative test (AlamarBlue), MV4-11; settings: 120 h incubation, average values of several tests, read-out: MV-4-11 IC50, mkM
Protocol: (§2) Antiproliferative activity of CDK8 inhibitors according to the present invention was measured in a cell-based test on continuous cell cultures MV4-11 (biphenotypic myelomonocytic leukemia, ATCC® CRL-9591™), KG-1 (acute myeloid leukemia, ATCC® CCL-246™), HL-60 (acute promyelocytic leukemia, ATCC® CCL-240™) using a vital stain AlamarBlue (ThermoFisher, #DAL1100). The cells were grown in RPMI-1640 (PanEco, #C330p) medium with addition of 10% FBS (Gibco, #16140-071); washed and resuspended in culture medium with 10% FBS (Gibco, #16140-071) in 96-well culture plates (Corning, #3599) with ≈ 10 ×10^3 cells in […] of medium per well. The compounds in question were dissolved in DMSO and diluted with a medium with 10% FBS (Gibco, #16140-071) to a final concentration ranging form 0 to 100 µM. […] of diluted compounds were then added to each well (final DMSO concentration was less than 1%) and incubated under 5% CO2 atmosphere at 37°C for 120 h. After incubating, 15 µL of AlamarBlue (ThermoFisher, #DAL1100) reagent was added per well, contents of plates were mixed in an orbital shaker (Biosan, Latvia) and further incubated for 3-5 h at 37°C under 5% CO2 atmosphere. Number of living cells was estimated using a microplate spectrophotometer (Tecan Infinite M200Pro, Switzerland) measuring fluorescent signal at the excitation wavelength (λEx) of 540 nm and emission wavelength (λEm) of 590 nm.
(§3) IC50 was calculated using Magellan 7.2 software (Tecan, Switzerland) approximating experimental points by four-parameter logistic model with the optimization by Levenberg-Marquardt (table 7, table 7).

[5] = General cytotoxicity test on HepG2 cells; assay type: cell-based; settings: human, 72 h incubation, 200 to 0.78 µM, average values of several tests, read-out: Hep-G2 CC50, mkM
Protocol: Cell viability was assessed using the above method. Table 6. […] The results are presented as average values of activity obtained in several tests.

KG-1 = assay: Cell-based antiproliferative test (AlamarBlue), KG-1; settings: 120 h incubation, average values of several tests, read-out: KG-1 IC50, mkM
Protocol: as §2, §3

Compound | Stability in SGF, % [1] [%] | Stability in blood plasma, % [2] [%] | microsomal CLint at 10 µM [3] [µL/min/mg] | Papp A→B at 2 h, 10 µM [4] [×10⁻⁶ cm/s] | efflux ratio at 2 h, 10 µM [4] | IC50 (MV4-11; Homo sapiens, MV4-11, 120 h) [nM] | CC50 at 72 h ([5]; HepG2 cells) [nM] | IC50 (KG-1; Homo sapiens, KG-1) [nM] | CC50 at 72 h [5] [nM] | IC50 (MV4-11) [nM] | IC50 (KG-1) [nM]
O=C(c1ccncc1)c1c[nH]c2ncc(-c3ccc(N4CCOCC4)c(O)c3)cc12 [CDK8-4-11, (5-(3-Hydroxy-4-morpholinophenyl)-1H-pyrrolo[2,3-b]pyridin-3-yl) (pyridin-4-yl) methanone] | 98.1 | 88.5 | 15 | 13.9 | 1.54 | 1330 | > 200000 |  |  |  | 
COc1ccc(-c2cnc3[nH]cc(C(=O)c4ccncc4)c3c2)cc1 [CDK8-4-33, (5-(4-Methoxyphenyl)-1H-pyrrolo[2,3-b]pyridin-3-yl) (pyridin-4-yl)methanone] | 100 | 100 | 21.2 | 13.4 | 1.5 | 19700 | > 100000 |  |  |  | 
COC1CN(C(=O)c2cnc3c(N)ncc(-c4ccc(-c5cnn(C)c5)cc4)c3c2)C1 [CDK8-3-34, (8-Amino-5-(4-(1-methyl-1H-pyrazol-4-yl)phenyl)-1,7-naphthyridin-3-yl)(3-methoxyazetidin)methanone] |  |  |  |  |  |  |  | 5 |  |  | 
O=C(C1CN(c2cc(F)c3ncn(-c4ccc(-c5cn[nH]c5)cc4)c3c2)C1)N1CCOCC1 [CDK8-1-8, (1-(1-(4-(1H-Pyrazol-4-yl)phenyl)-4-fluoro-1H-benzo[d]imidazol-6-yl)azetidin-3-yl)(morpholino)methanone] | 100 | 97.8 | 23.4 | 19.7 | 2.9 | 3920 | > 200000 |  |  |  | 
O=C(c1ccccn1)c1c[nH]c2ncc(-c3ccc(N4CCOCC4)cc3)cc12 [CDK8-4-36, (5-(4-Morpholinophenyl)-1H-pyrrolo[2,3-b]pyridin-3-yl) (pyridin-2-yl)methanone] | 100 | 100 |  |  |  | 460 | 17000 | 1590 |  |  | 
COc1cc(-c2cnc3[nH]cc(C(=O)c4ccncc4)c3c2)ccc1N1CCOCC1 [CDK8-4-31, (5-(3-Methoxy-4-morpholinophenyl)-1H-pyrrolo[2,3-b]pyridin-3-yl) (pyridin-4-yl) methanone] | 99.9 |  |  | 36.1 | 0.35 | 610 |  | 21700 | > 100000 |  | 
Cn1cc(-c2ccc(-c3cncc4ncc(C(=O)NC5CC5)cc34)cc2)cn1 [CDK8-3-37] |  |  |  |  |  |  |  |  |  | 22 | 4
Cn1cc(-c2ccc(-c3cnc(N)c4ncc(C(=O)NC5CC5)cc34)cc2)cn1 [CDK8-3-38, 8-Amino-N-cyclopropyl-5-(4-(1-methyl-1H-pyrazol-4-yl)phenyl)-1,7-naphthyridine-3-carboxamide] |  |  |  |  |  |  |  | < 10 |  |  | 
O=C(c1cccnc1)c1c[nH]c2ncc(-c3ccc(N4CCOCC4)c(O)c3)cc12 [CDK8-4-7, (5-(3-Hydroxy-4-morpholinophenyl)-1H-pyrrolo[2,3-b]pyridin-3-yl) (pyridin-3-yl) methanone] | 99.1 | 93.8 | 23.2 | 64.5 | 0.34 | 390 | > 200000 |  |  |  | 
CN1CCN(C(=O)c2cnc3c(N)ncc(-c4ccc(-c5cnn(C)c5)cc4)c3c2)CC1 [CDK8-3-31, (8-Amino-5-(4-(1-methyl-1H-pyrazol-4-yl)phenyl)-1,7-naphthyridin-3-yl)(4-methylpiperazin-1-yl) methanone] |  |  |  |  |  |  |  | 2 |  |  | 
COc1cc(-c2cnc3[nH]cc(C(=O)c4ccccn4)c3c2)ccc1N1CCOCC1 [CDK8-4-23, (5-(3-Methoxy-4-morpholinophenyl)-1H-pyrrolo[2,3-b]pyridin-3-yl) (pyridin-2-yl) methanone] | 100 | 87.4 | 12.8 | 36.9 | 0.14 | 100 | > 100000 |  |  |  | 
